A word on the inhibition: it is the relative decrease from the control value, in per cent. A word on the IC50: it is the concentration that gives 50% inhibition.

Some results are limits rather than exact numbers.

The test system of one assay is PC3 cells. Nature of the assay: PC3 growth inhibition (Cell-titer glo, 72 hours). The assay is classed as cell-based. The conditions noted are these: Homo sapiens, PC-3, PC3 cells, 72 hours, Cell-titer glo, read-out: Percent Inhibition (PC3 growth inhibition); for inhibition at 1 µM: compound concentration 1 μM. How it is done:
The ability of a compound of the invention to inhibit the growth of cells can be measured using a variety of methods known in the art. For example, the ability of a compound of the invention to inhibit the growth of PC3 cells can be measured. PC3 cells can be plated and incubated overnight under CO2. For each measurement, a compound of the invention (or vehicle e.g., DMSO) can be diluted with AIM serum free medium and added to the cell plate. The cell plate can then be incubated for 72 h under CO2. Cell-titer glo solution can be added and the plates can be incubated protected from light and the amount of luminescences can be measured. Concentration response curves can be generated by calculating the luminescence increase in test compound treated samples relative to DMSO-treated controls. Percentage remaining viability values at a single concentration can be measured. Growth inhibition (GI50) or cell viability (LD50) values can be determined from those curves.
Compounds of the invention were assayed to measure PC3 growth inhibition at a concentration of 1 μM or 1.667 μM (Table 3). To measure PC3 growth inhibition, PC3 cells that were maintained in PRMI1640 growth medium (Life Technologies; Cat. No. 11875) at 37° C. under 5% CO2 are trypsinized and diluted at a density of 8×10^4 cells/ml, 25 ul per well of cells and plated in 384-well black tissue culture plate. The cells are incubated overnight at 37° C. under 5% CO2. For each measurement, a test compounds or vehicle control (DMSO) are diluted with AIM serum free medium and added to the cell plate. Incubate for 72 hours at 37° C. under 5% CO2. 25 μl Cell-titer glo solution (Promega; Cat. No. G8462) is added and the cell plates are incubated for 10 minutes protected from light. The luminescence is measured. Concentration response curves are generated by calculating the luminescence increase in test compound-treated samples relative to DMSO-treated controls. Percentage remaining viability values at a single concentration, growth inhibition (GI50) or cell viability (LD50) values are determined from those curves. One skilled in the art will appreciate that these values are subject to experimental variation.

The target in the next assay is hNAMPT protein (Homo sapiens (Human), UniProt P43490). Description: NAMPT enzyme assay (TR-FRET/HTRF, BodiPY ligand, anti 6His-Tb). It counts as binding. The conditions noted are these: for IC50: NAMPT IC50 range class, read-out: IC50; for inhibition at 1 µM: compound concentration 1 μM, read-out: Percent Inhibition. The text has this:
As discussed above, the invention provides compounds that are useful as inhibitors of the enzyme NAMPT. The NAMPT inhibition of a compound of the invention can be measured using a variety of methods known in the art. For example, the ability of a compound of the invention to inhibit NAMPT enzyme activity can be measured using a homogeneous time resolved fluorescence (HTRF) assay using hNAMPT protein and anti 6His-Tb in buffer treated with a compound of the invention (or control e.g., DMSO) and BodiPY ligand. The TR-FRET signal can be measured using a high throughput microplate reader (e.g., Pherastar). Excitation can be carried out at 320 nm. The percent inhibition value at a single concentration of compound of the invention can be calculated relative to a control treated sample. A concentration response curve can be generated for each compound of the invention and the curve fitted to generate an IC50 value. […] Cat. No. […] To this solution is added test compounds or vehicle control (DMSO) and BodiPY ligand (structure below). The plate is shaken for 1-2 min, sealed and incubated for 1 hour at rt in the dark. The TR-FRET signal is measured using BMG Pherastar (Lanthascreen protocol on BMG Pherastar). Excitation was carried out at 320 nm, and the ratio of emission of BodiPY (520 nm) to terbium (486 nm) was determined. Concentration response curves are generated by calculating the excitation increase in test compound-treated samples relative to DMSO-treated controls. For the assay method described above, test compound percent inhibition values at a single concentration are calculated relative to control (DMSO) treated samples. Compound concentration response curves are fitted to generate IC50 values from those curves. One skilled in the art will appreciate that these values generated either as percentage inhibition at a single concentration or IC50 values are subject to experimental variation.
A general note: TR-FRET usually uses a lanthanide donor and a delayed reading to cut background.

hNAMPT protein, sequence (P43490 whole entry): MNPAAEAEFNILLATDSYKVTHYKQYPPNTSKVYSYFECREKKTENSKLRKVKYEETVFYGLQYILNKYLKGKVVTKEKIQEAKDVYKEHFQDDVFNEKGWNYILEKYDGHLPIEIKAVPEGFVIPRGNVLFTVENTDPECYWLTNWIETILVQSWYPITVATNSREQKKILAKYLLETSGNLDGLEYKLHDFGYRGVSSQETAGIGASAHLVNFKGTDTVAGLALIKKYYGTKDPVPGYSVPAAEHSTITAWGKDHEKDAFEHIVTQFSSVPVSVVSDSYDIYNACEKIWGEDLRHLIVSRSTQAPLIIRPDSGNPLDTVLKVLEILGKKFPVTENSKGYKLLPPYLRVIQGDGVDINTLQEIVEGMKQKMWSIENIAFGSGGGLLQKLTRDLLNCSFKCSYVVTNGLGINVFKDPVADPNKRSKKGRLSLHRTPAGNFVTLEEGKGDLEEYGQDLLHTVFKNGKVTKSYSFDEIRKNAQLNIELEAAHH

Turning to `O=C(c1ccc2nc(-c3ccc(F)cc3)c(-c3ccc(F)cc3)nc2c1)N1CCn2nncc2C1` [Compound I-28, [2,3-bis(4-fluorophenyl)quinoxalin-6-yl](6,7-dihydro[1,2,3]triazolo[1,5-a]pyrazin-5(4H)-yl)methanone], the inhibition at 1 µM with PC3 cells came to 94%. Besides, at hNAMPT protein, the IC50 lay in the range of 2000 to 10000 nM and the inhibition at 1 µM is 19%.

`O=C(c1ccc2nc(-c3ccc(F)cc3)c(-c3ccc(F)cc3)nc2c1)N1CCC(c2cccnc2)C1` (stereo not drawn) [Compound I-29, [2,3-bis(4-fluorophenyl)quinoxalin-6-yl][3-(pyridin-3-yl)pyrrolidin-1-yl]methanone]: the inhibition at 1 µM in the assay with PC3 cells turned out to be 96%. Moreover, at hNAMPT protein, the IC50 was in the range of 2000 to 10000 nM and the inhibition at 1 µM was 36%.

In the case of `O=C(NCCCn1ccnc1)c1ccc2nc(N3CCC4(CC3)COC4)c(-c3ccccc3)nc2c1` [Compound I-30, N-[3-(1H-imidazol-1-yl)propyl]-2-(2-oxa-7-azaspiro[3.5]non-7-yl)-3-phenylquinoxaline-6-carboxamide], the inhibition at 1 µM in the assay with PC3 cells is -7%. At hNAMPT protein, the half-inhibitory concentration (IC50) was in the range of 100 to 500 nM and the inhibition at 1 µM was determined as 83%.

As for `CC1(C)CN(c2nc3ccc(C(=O)NCCCn4ccnc4)cc3nc2-c2ccccc2)CCO1` [Compound I-31, 2-(2,2-dimethylmorpholin-4-yl)-N-[3-(1H-imidazol-1-yl)propyl]-3-phenylquinoxaline-6-carboxamide], the inhibition at 1 µM is -7% with PC3 cells and 89% on hNAMPT protein. For the same molecule, at hNAMPT protein, the IC50 was less than 100 nM.

For `O=C(NCCCc1cccnc1)c1ccc2nc(-c3ccc(F)cc3)c(-c3ccc(F)cc3)nc2c1` [Compound I-32, 2,3-bis(4-fluorophenyl)-N-[3-(pyridin-3-yl)propyl]quinoxaline-6-carboxamide], the inhibition at 1 µM with PC3 cells is -5%. For the same molecule, at hNAMPT protein, the IC50 lay within 100 to 500 nM and the inhibition at 1 µM worked out at 78%.

Regarding `Cn1cnc2c1CN(C(=O)c1ccc3nc(-c4ccc(F)cc4)c(-c4ccc(F)cc4)nc3c1)CC2` [Compound I-33, [2,3-bis(4-fluorophenyl)quinoxalin-6-yl](3-methyl-3,4,6,7-tetrahydro-5H-imidazo[4,5-c]pyridin-5-yl)methanone], the inhibition at 1 µM in the assay on PC3 cells is 92%; on hNAMPT protein it was 20%. At hNAMPT protein, the IC50 lay in the range of 2000 to 10000 nM.

Regarding `C[C@@H]1CN(c2nc3cc(C(=O)NCCCn4ccnc4)ccc3nc2-c2ccccc2)C[C@H](C)O1` [Compound I-34, cis-3-[(2R,6S)-2,6-dimethylmorpholin-4-yl]-N-[3-(1H-imidazol-1-yl)propyl]-2-phenylquinoxaline-6-carboxamide], the inhibition at 1 µM in the assay on PC3 cells is -6%. Further, at hNAMPT protein, the IC50 is 1000 to 2000 nM and the inhibition at 1 µM amounted to 47%.

Turning to `O=C(NCCCc1c[nH]cn1)c1ccc2nc(N3CCOCC3)c(-c3ccc(F)cc3)nc2c1` [Compound I-35, 3-(4-fluorophenyl)-N-[3-(1H-imidazol-4-yl)propyl]-2-(morpholin-4-yl)quinoxaline-6-carboxamide], the inhibition at 1.667 µM in the assay on PC3 cells (compound concentration 1.667 μM) was 2%. Besides, on hNAMPT protein, the concentration for half-maximal inhibition (IC50) is less than 100 nM and the inhibition at 1 µM was 90%.

As to `COc1ccccc1-c1nc2cc(C(=O)NCCCn3ccnc3)ccc2nc1-c1ccccc1` [Compound I-36, N-[3-(1H-imidazol-1-yl)propyl]-3-(2-methoxyphenyl)-2-phenylquinoxaline-6-carboxamide], the inhibition at 1 µM in the assay with PC3 cells worked out at 1%. Moreover, on hNAMPT protein, the IC50 was in the range of 100 to 500 nM and the inhibition at 1 µM was found to be 51%.

Turning to `O=C(NCCCn1ccnc1)c1ccc2nc(N3CC4CC3CO4)c(-c3ccccc3)nc2c1` (stereo not drawn) [Compound I-37, N-[3-(1H-imidazol-1-yl)propyl]-2-(2-oxa-5-azabicyclo[2.2.1]hept-5-yl)-3-phenylquinoxaline-6-carboxamide], in the assay on PC3 cells, the inhibition at 1 µM is -6%. For the same molecule, on hNAMPT protein, the IC50 was in the range of 500 to 1000 nM and the inhibition at 1 µM was 65%.

These data come from patent publication US10144742B2 (Millennium Pharmaceuticals, Inc., priority 2014, dated 2018).
